This is an account of results in US5234917A, “Substituted 5-(alkyl)carboxamide imidazoles” (priority 1990, dated 1993).

This experiment has as its system pressor response to exogenous angiotensin II. Put plainly: Inhibition of Pressor Response to Angiotensin II in Conscious Rats. To be noted: Rattus norvegicus, mean arterial pressure, 250 mg/kg angiotensin II i.v. as printed, compounds given intravenously or orally at 3 to 300 mg/kg (route not given), read-out: IC50 (dose of compound needed to produce 50% inhibition of the control pressor response to angiotensin II). It counts as in vivo. How it is done: Angiotensin II antagonist activity of the compounds of Formula (I) is assessed by in vitro and in vivo methods. In vitro antagonist activity is determined by the ability of the compounds to compete with ^125 I-angiotensin II for binding to vascular angiotensin II receptors and by their ability to antagonize the contractile response to angiotensin II in the isolated rabbit aorta. In vivo activity is evaluated by the efficacy of the compounds to inhibit- the pressor response to exogenous angiotensin II in conscious rats and to lower blood pressure in a rat model of renin dependent hypertension.
Rats are prepared with indwelling femoral arterial and venous catheters and a stomach tube (Gellai et al., Kidney Int. 15:419, 1979). Two to three days following surgery the rats are placed in a restrainer and blood pressure is continuously monitored from the arterial catheter with a pressure transducer and recorded on a polygraph. The change in mean arterial pressure in response to intravenous injections of […] angiotensin II is compared at various time points prior to and following the administration of the compounds intravenously or orally at doses of 3 to 300 mg/kg. The dose of compound needed to produce 50% inhibition of the control response to angiotensin II (IC50) is used to estimate the potency of the compounds.

Take `CCCCc1ncc(CC(=O)N[C@@H](Cc2ccccc2)C(=O)O)n1Cc1ccccc1Cl` [Example 14, N-[{2-n-Butyl-1-(2-chlorophenyl)methyl-1H-imidazol-5-yl}methylcarbonyl]-L-phenylalanine]: the ED50 turned out to be 16 mg/kg.
